In patent publication US20240033277A1, “METHODS FOR TREATING AUTOIMMUNE DISEASES” (NEW YORK SOCIETY FOR THE RELIEF OF THE RUPTURED AND …, priority 2020, published 2024):
“Also recorded” adds a separate entry of the source.

Columns and labels:
TLR9-activated pDCs [1] = test: IFNA gene expression (Q-PCR) in pDCs activated with TLR9 agonist CpG-C274; assay type: cell-based, human; details: for IFNA expression in TLR9-activated pDCs under ER stress plus IRE1α inhibitor: TM or TG with MKC8866 at 1 μM or 4μ8c at 10 μM for 3 h, FIGS. 1F, 1G, 6C, 6D; for IFNA (IFN-I) expression in TLR9-activated pDCs: UK5099 at 10, 20, and 40 μM or CB839 at 0.5 μM for 1 h, FIGS. 11B-11C
pDCs [2] = test: Serine biosynthesis gene expression (PHGDH, PSAT1, PSPH; Q-PCR) in pDCs; assay type: cell-based, human
TLR9-activated pDCs [3] = test: Secreted IFN-α (ELISA) from pDCs activated with TLR9 agonist; assay type: cell-based, human
TLR9-activated pDCs [4] = test: IFN-I gene and interferon-stimulated gene (ISG) expression in TLR9-activated pDCs (RNA-seq, Q-PCR); assay type: cell-based, human; details: CPI-613 at 100 & 200 μM for 1 h, then TLR9 agonist for 5 h; FIGS. 8A-8E
pDCs [5] = test: Intracellular ATP in pDCs (ATP determination kit); assay type: cell-based, human; details: then TLR9 agonist
Protocol: (§1) Supernatants were removed, and cells were deproteinated in 0.5 ml of 0.5M MPA on ice for 5 min, followed by centrifugation at 10000×g for 5 min at 4° C. The deproteinated samples were neutralized with 25 μl of potassium carbonate, and then centrifugation at 10000×g for 5 min at 4° C. The supernatant was removed and deproteinated samples were used for pyruvate assay. For ATP determination, ATP determination kit (Sigma: A22066) was used in pDCs extracts as per the manufacture protocol.

pDCs of SSc patients [6] = test: IFN-inducible gene expression in pDCs of patients with SSc; assay type: cell-based, human; details: CPI-613 at 200 μM for 13 h; FIG. 4G
pDCs of SSc patients [7] = test: Secreted CXCL4 (ELISA) from pDCs of patients with SSc; assay type: cell-based, human; details: CPI-613 at 200 μM for 13 h, FIG. 4H
pDCs [8] = test: Cell viability of pDCs by flow cytometry (DAPI); details: CPI-613 at 100 & 200 μM for 1 h, then TLR9 agonist for 5 h; FIG. 8F
Protocol: (§2) After 6-8 h of cell culture, pDCs were washed in PBS and then resuspending in FACS buffer and stained with DAPI. Cells were acquired by a fluorescence activated cell sorter (FACS) and analysis was performed using FlowJo analysis software. The gating strategy for viable cells involved progressively measuring total cells without uptake of DAPI.
(§3) Cell viability using Flow cytometry. After 6 h of cell culture, pDCs were washed in PBS and then resuspended in FACS buffer and stained with DAPI. Cells were acquired by a fluorescence activated cell sorter (FACS) and analysis was performed using FlowJo analysis software. The gating strategy for viable cells involved progressively measuring total cells without uptake of DAPI.

[9] = system: IRE1α-XBP1 signaling in pDCs; test: XBP1 splicing (Q-PCR) in pDCs; assay type: cell-based, human
pDCs [10] = test: Intracellular pyruvate in pDCs (pyruvate detection kit); assay type: cell-based, human; details: then TLR9 agonist for 2.5 h, FIGS. 2K, 2L
Protocol: as §1, with “Intracellular pyruvate were determined in pDCs by pyruvate detection kit (Cayman chemicals: 700470) as per the manufacture protocol. pDC cultured in RPMI medium were washed in 1 ml of PBS and centrifuged at 10000×g for 5 min at 4° C. Supernatants” for “Supernatants”

pDCs [11] = system: pDCs
Protocol: as §2, §3

pDCs [12] = test: UPR and ER stress gene expression in pDCs (RNA-seq, Q-PCR); assay type: cell-based, human
pDCs [13] = test: IFN-α expression in pDCs cultured with ER stress inducers alone; assay type: cell-based, human; details: TM at 3 μg/ml or TG at 0.5 μM, no TLR agonist; FIGS. 1A, 1B
TLR9-activated pDCs [14] = test: IL-6 gene expression (Q-PCR) in TLR9-activated pDCs; assay type: cell-based, human; details: TM or TG for 3 h, then TLR9 agonist; quantified at 5 h; FIG. 5F
[15] = then CpG-C274 0.075 μM, 5 h, normalized to TLR9 agonist

Molecule: Cc1cc(=O)oc2c(C=O)c(O)ccc12 [4μ8c]
- IFNA expression in TLR9-activated pDCs under ER stress plus IRE1α inhibitor (TLR9-activated pDCs [1]; then TLR9 agonist, 5 h): prevented ER stress-driven inhibition of IFN-α

Molecule: O=C(Cc1cccc(OC(F)(F)F)c1)Nc1ccc(CCCCc2nnc(NC(=O)Cc3ccccn3)s2)nn1 [CB839]
- IFNA (IFN-I) expression in TLR9-activated pDCs (TLR9-activated pDCs [1]; [15]): Inhibit

Molecule: O=C(O)CCCCC(CCSCc1ccccc1)SCc1ccccc1 (stereo not drawn) [CPI-613, 6,8-bis-benzylthio-octanoic acid]
- effect on expression of PHGDH (pDCs [2]; CPI-613 at 100 & 200 μM for 1 h, then TLR9 agonist for 5 h, FIG. 8H): no effect
- secretion of IFN-α by TLR9-activated pDCs (TLR9-activated pDCs [3]; CPI-613 at 100 μM & 200 μM for 1 h, then TLR9 agonist, 13 h, FIG. 3K): inhibited
- induction of IFN-α by TLR9-stimulated pDCs in the presence of CXCL4 (TLR9-activated pDCs [3]; CPI-613 at 200 μM for 1 h, then TLR9 agonist with CXCL4, 13 h ELISA, FIG. 4F): abrogated
- expression of ISGs such as GBP1, IRF7, ISG54, MxB, CXCL10 (TLR9-activated pDCs [4]): inhibited
- IFNA expression in TLR9-activated pDCs (TLR9-activated pDCs [1]; CPI-613 at 100 μM & 200 μM for 1 h, then TLR9 agonist, 5 h, FIG. 3J): inhibited; also recorded: reduces
- intracellular ATP levels in TLR9-activated pDCs (pDCs [5]; CPI-613 at 100 μM & 200 μM for 1 h, 4 h, normalized to medium, FIG. 3L): reduced
- expression of IFN-inducible genes (GBP1, IRF7, ISG54, MxB, OAS2) by pDCs of SSc patients (pDCs of SSc patients [6]): drastically reduced
- secretion of CXCL4 (pDCs of SSc patients [7]): no effect
- effect on cell viability (pDCs [8]): no effect
- effect on XBP1 splicing ([9]; CPI-613 at 100 & 200 μM for 1 h, then TLR9 agonist for 5 h, FIG. 8G): no effect

Molecule: Cc1ccc(OCCN(C)C(=O)Cn2cc(NC(=O)CCOc3ccccc3)cn2)cc1 [IXA4]
- PHGDH gene expression (pDCs [2]; IXA4 at 30 μM for 6 h, normalized to medium, FIG. 2F): conversely induced
- IFNA expression in TLR9-activated pDCs (TLR9-activated pDCs [1]; IXA4 at 10 μM & 30 μM for 1 h, then TLR9 agonist, 5 h, FIG. 1I): abrogated
- XBP1 splicing ([9]; IXA4 at 10 μM & 30 μM for 6 h, FIG. 1H): enhanced

Molecule: N[C@@H](CO)C(=O)O [L-serine]
- IFN-α secretion by TLR9-activated pDCs (TLR9-activated pDCs [3]; L-serine 1 mg/ml for 1 h, then TLR9 agonist, 13 h, FIG. 2J): unaltered

Molecule: COc1cc2c(C)c(CC(=O)N3CCOCC3)c(=O)oc2c(C=O)c1O [MKC8866]
- IFNA expression in TLR9-activated pDCs under ER stress plus IRE1α inhibitor (TLR9-activated pDCs [1]; then TLR9 agonist, 5 h): prevented ER stress-driven inhibition of IFN-α

Molecule: Cc1cc(C)nc(NC(=S)N2CCN(Cc3ccc(C(F)(F)F)cc3)CC2)c1 [NCT-503]
- intracellular pyruvate levels in ER stressed-pDCs plus PHGDH inhibitor (pDCs [10]; TM or TG with NCT-503 at 2 μM for 3 h): restored
- IFNA expression by TLR9-activated pDCs facing ER stress plus PHGDH inhibitor (TLR9-activated pDCs [1]; TM or TG with NCT-503 at 2 μM for 3 h, then TLR9 agonist, 5 h, FIGS. 2H, 2I): restored
- intracellular ATP levels under ER stress plus PHGDH inhibitor (pDCs [5]; tunicamycin with NCT-503 at 2 μM for 3 h, 2.5 h, FIG. 3I): restored

Molecule: N#C/C(=C\c1cn(-c2ccccc2)c2ccccc12)C(=O)O [UK5099]
- IFNA (IFN-I) expression in TLR9-activated pDCs (TLR9-activated pDCs [1]; [15]): Inhibit

Molecule: CC(=O)C(=O)[O-].[Na+] [pyruvate, sodium pyruvate]
- IFNA expression by TLR9-activated pDCs under ER stress with metabolite supplementation (TLR9-activated pDCs [1]; TM or TG with sodium pyruvate 10 mM or α-KG 10 mM for 3 h, then TLR9 agonist, 5 h, FIGS. 3A-3D): sufficient to restore
- intracellular ATP levels under ER stress with metabolite supplementation (pDCs [5]; TM or TG with pyruvate 10 mM or α-KG 10 mM for 3 h, 2.5 h, FIGS. 3E-3H): restored

Molecule: C/C=C(/C)C(=O)O[C@H]1C(C)=C2[C@H]([C@@H]1OC(=O)CCCCCCC)[C@@](C)(OC(C)=O)C[C@H](OC(=O)CCC)[C@@]1(O)[C@H]2OC(=O)[C@@]1(C)O [thapsigargin, Thapsigargin]
- PHGDH gene expression (pDCs [2]; TM or TG for 3 h, followed by TLR9 agonist for 5 h, FIG. 2D): markedly induced
- serine biosynthesis gene expression (PHGDH, PSAT1, PSPH), irrespective of TLR9 signaling (pDCs [2]; TM or TG for 3 h, followed by TLR9 agonist for 5 h, FIGS. 2D, 7C, 7D): induction
- effect on viability (pDCs [11]): negligible effects
- intracellular pyruvate levels in ER stressed-pDCs (pDCs [10]; TM or TG for 3 h): significantly reduced
- induction of the unfolded protein response (UPR), RNA-seq (pDCs [12]; pDCs from HDs cultured 8 h, TM at 3 μg/ml or TG at 0.5 μM vs media alone, FIGS. 5A-5D): strong induction
- capacity to express IFN-α with ER stress inducer alone (pDCs [13]): not impacted
- effect on IL-6 expression (TLR9-activated pDCs [14]): negligible effects
- expression levels of IFNA in response to TLR9 (TLR9-activated pDCs [1]; TM 3 μg/ml or TG 0.5 μM for 3 h, then CpG-C274 0.075 μM, quantified at 5 h, normalized to TLR9 agonist, FIG. 1A): drastically inhibited
- intracellular ATP levels under ER stress (pDCs [5]; TM or TG for 3 h, 2.5 h, normalized to medium, FIGS. 3E-3H): reduced

B1: CXCL4: chemokine CXCL4 (Sigma: SRP3142) added to pDC culture at 3 μg/ml (protein, UniProt P02776 32-101, looked up)
Platelet factor 4: EAEEDGDLQCLCVKTTSQVRPRHITSLEVIKAGPHCPTAQLIATLKNGRKICLDLQAPLYKKIIKKLLES
- PHGDH upregulation under ER stress (pDCs [2]; tunicamycin 3 h, then TLR9 agonist with CXCL4 3 μg/ml, 5 h, FIG. 4E): dampened
- IFN-α secretion by TLR9-activated pDCs undergoing ER stress (TLR9-activated pDCs [3]; tunicamycin 3 h, then TLR9 agonist with CXCL4 3 μg/ml, 13 h, FIG. 4C): restore
- expression of UPR genes (XBP1, spliced XBP1, HSPA5, DNAJB9) facing ER stress (pDCs [12]; tunicamycin 3 h, then TLR9 agonist with CXCL4 3 μg/ml, 5 h, FIG. 4D): significant decrease
- IFN-α expression by TLR9-activated pDCs undergoing ER stress (TLR9-activated pDCs [1]; tunicamycin 3 h, then TLR9 agonist with CXCL4 3 μg/ml, 5 h, FIG. 10A): restore
